# Assay results reported in USRE46873E1, “Multi-targeted RNAi therapeutics for scarless wound healing of skin” (Sirnaomics, Inc., priority 2007, dated 2018).
# Bridges are numbered along the chain shown (N, C = ends). Roman numbers before positions name the chains, in order. Where no end group is shown, it is not given here.
# Tests used:
# lung, liver, and kidney = assay: In vivo toxicity of HK peptides after intravenous administration; conditions: mice, 1000 μg, 24 h after injection; preliminary studies
# Protocol: H2K4b, had the strongest antifungal effect reducing growth of C. albicans to nearly 40% at 37.5 μg/ml (3.4 μM) and 85% at 50 μg/ml (4.5 μM). […] Relative to in vitro toxicity, the in vivo toxicity differences among these peptides are more striking. […] Of the three organs examined, the kidney appears to be the most sensitive to these peptides. Relative to H2K4b, a decrease in cationic charge in the terminal branches of H3K4b and H3K(G)K4b may, in part, account for their reduced toxicity in vitro and in vivo; the reduction in charge may decrease their interaction with negatively charged cell membranes. With eight additional glycines, H3K(G)4b polymer has a reduced charge per total number of amino acids relative to H3K4b. Because there are five lysines in each terminal arm of H3K(G)4b and H3K4b, however, we doubt that minimal charge differences readily explain the reduced toxicity of H3K(G)4b relative to H3K4b. An alternative possibility is that glycines may disrupt alpha helices in the terminal branches, thereby enhancing the flexibility of the polymer and allowing enzymatic degradation. Several secondary structure programs for peptides predict a marked difference in the alpha helical content between a glycine containing peptide, H3K(G)4b, and the non-glycine containing peptides, H2K4b and H3K4b.
# Cox-2 mRNA in PC3 cells = assay: siRNA transfection of PC3 cells, RT-PCR of Cox-2; assay type: cell-based; conditions: human PC3 cells
# Protocol: (§1) • 4. Human prostate carcinoma cell-PC3 was used for detection of the gene expression knockdown. A series of standard transfection experiments were carried out using the protocol provided by the vendor (Invitrogen) with the siRNA duplexes identified in step 2 accordingly. • 5. Total RNA samples were isolated and subjected to RT-PCR analysis using the respective PCR primers identified in step 3 above.
# (§2) Among ten in silico designed 25 mer siRNA sequences, we first pick three for testing. Before testing those siRNA oligos (synthesized by Qiagen) in the corresponding cells, such as human PC-3 cell (a bone metastasis of a […] prostatic adenocarcinoma), we first use RT-PCR to survey the presence of the target gene expression in the total RNA samples (FIG. 14). […] We further surveyed the expression of these three genes in the mouse C166 cell. […] Therefore, we can transfect the three selected siRNA oligos targeting a particular gene into the corresponding cell and then evaluate their gene silencing potential, followed by total RNA isolation and RT-PCR analysis. Three doses were used for each transfection on the 6-well plate: 0.5 ug, 1 ug and 2 ug, with Lipo2000 following the vendor's direction. […] The RT-PCR products were also subjected to the gel electrophoreses and quantification. […]
# Hoxb13 mRNA in PC3 cells = assay: siRNA transfection of PC3 cells, RT-PCR of Hoxb13; assay type: cell-based; conditions: human PC3 cells
# Protocol: as §1, §2
# TGF-β1 mRNA in PC3 cells = assay: siRNA transfection of PC3 cells, RT-PCR of TGF-beta1; assay type: cell-based; conditions: human PC3 cells
# Protocol: as §1, §2
substance,measurement,setting,value
"I: KHHHKHHHKHHHKHHHKKKK-NH2 / II: KHHHKHHHKHHHKHHHK / III: KHHHKHHHKHHHKHHHK / IV: KHHHKHHHKHHHKHHHK (amide I:18-IV:C, I:19-III:C, I:20-II:C) [H3K4b]",organ toxicity,"lung, liver, and kidney",minimally toxic to the kidney
"hmCX-1: 25-mer siRNA duplex targeting human and mouse COX-2; sense 5′-GGUCUGGUGCCUGGUCUGAUGAUGU-3′ (SEQ ID NO: 9) (antisense ACAUCAUCAGACCAGGCACCAGACC; listed as RNA, further chemistry not given here)",Cox-2 gene expression / silencing activity (RT-PCR),Cox-2 mRNA in PC3 cells,potent
"hmHX-1: 25-mer siRNA duplex targeting human and mouse HoxB13; sense 5′-GGUGGCUGGAACAGCCAGAUGUGUU-3′ (SEQ ID NO: 7) (antisense AACACAUCUGGCUGUUCCAGCCACC; listed as RNA, further chemistry not given here)",Hoxb13 gene expression / silencing activity (RT-PCR),Hoxb13 mRNA in PC3 cells,potent
"hmTF-2: 25-mer siRNA duplex targeting human and mouse TGF-β1; sense 5′-CCCAAGGGCUACCAUGCCAACUUCU-3′ (SEQ ID NO: 11) (antisense AGAAGUUGGCAUGGUAGCCCUUGGG; listed as RNA, further chemistry not given here)",TGF-β1 gene expression / silencing activity (RT-PCR),TGF-β1 mRNA in PC3 cells,potent
